Test results as given in ChEMBL document CHEMBL3217718, “Synthesis, radical scavenging activity and structureactivity relationship of uric acid analogs” (Medchemcomm, 2013).
In brackets after ≈: the same amount, converted by molar mass. Activity calls are given as the source filed them. The rule behind the calls is not given here.

Assays:
[1] = Solubility of the compound in PBS buffer at pH 7.4 at 37 degC; format: physicochemical
[2] = tested on: Radical scavenging activity; assay: Antioxidant activity assessed as DPPH radical scavenging rate constant measured for 60 secs by spectrophotometric analysis; format: functional
HL-60 = assay: Cytotoxicity against human HL60 cells assessed as cell viability up to 120 uM after 24 hrs by trypan blue assay; format: cell-based; conditions: hl-60, 24 h
[3] = tested on: Radical scavenging activity; assay: Antioxidant activity assessed as DPPH radical scavenging activity at 500 uM measured for 60 secs by spectrophotometric analysis; format: functional
[4] = Solubility of the compound in serum at pH 7.4; format: ADME

Compound | Activity [2] [×10³ /M/s] | Activity [3] | other results
O=c1[nH]c2ccc(O)cc2[nH]1 | 110 |  | solubility [1]: 65 µg/mL (≈ 433 µM); Activity (HL-60): Non-toxic
c1ccc2[nH]cnc2c1 |  | inactive | 
O=c1[nH]c2ccc(O)nc2[nH]1 | 71 |  | solubility [1]: 82 µg/mL (≈ 543 µM); Activity (HL-60): Non-toxic
O=C1Cc2ccccc2C1 |  | inactive | 
Nc1ccc(O)cc1 [4-AMINOPHENOL] | 310 |  | Activity (HL-60): Toxic
Oc1ccc2cc[nH]c2c1 | 11 |  | 
COc1ccc2[nH]c(=O)[nH]c2n1 |  | inactive | 
Oc1ccc(O)cc1 [HYDROQUINONE] | 4.4 |  | Activity (HL-60): Toxic
O=c1[nH]c2ccccc2[nH]1 |  | inactive | 
[Na+].[O-]c1nc2c(O)nc(O)nc2[nH]1 | 0.7 |  | solubility [4]: 70 µg/mL
Oc1cccc2c1CCN2 | 0.21 |  | 
CC1=NN(c2ccccc2)C(=O)C1 | 72 |  | 
O=c1[nH]c(=O)c2[nH]c(=O)[nH]c2[nH]1 [URIC ACID] |  |  | solubility [1]: 53 µg/mL (≈ 315 µM); Activity (HL-60): Non-toxic
O=c1[nH]c2ccc(O)cc2o1 | 8.7 |  | 
Oc1ccc2[nH]ccc2c1 | 2.6 |  | 
O=C1Cc2ccc(O)cc2N1 | 0.93 |  | 
O=C1Cc2cc(O)ccc2N1 | 11 |  | solubility [1]: 225 µg/mL (≈ 1510 µM); Activity (HL-60): Non-toxic
Oc1ccc2c(c1)CCC2 |  | inactive | 
O=C1Cc2ccccc2N1 |  | inactive | 
O=C1Cc2cccc(O)c2N1 | 0.12 |  | 
O=c1[nH]c2cccc(O)c2[nH]1 | 0.37 |  | 
COc1ccc2[nH]c(=O)[nH]c2c1 |  | inactive | 
